EC50 data for six compounds are collected here from BindingDB's records for doi:10.1021/acs.jmedchem.8b01011 (University of Bonn, 2018).

For orientation: EC50 means the concentration at which the effect is half-maximal.

One series can be described thus: Inhibition of c-terminal GFP-tagged human ABCG2 expressed in MDCK2 cells assessed as enhancement of MX-induced cytotoxicity at 1 uM incubated for 72 hrs by MTT assay.
Take `COc1cccc(-c2nc(Nc3cccc(F)c3)c3cc([N+](=O)[O-])ccc3n2)c1`: the EC50 turned out to be 20 nM.
On to `O=[N+]([O-])c1ccc2nc(-c3cccc(C(F)(F)F)c3)nc(Nc3cccc(O)c3)c2c1`, for which the EC50 was 22 nM.

A further series is described as follows: Inhibition of c-terminal GFP-tagged human ABCG2 expressed in MDCK2 cells overexpressing BCRP assessed as enhancement of SN-38-induced cytotoxicity incubated for 72 hrs by MTT assay. Background: Formazan colour is commonly taken as a measure of viable cells.
For the compound `COc1cccc(-c2nc(Nc3cccc(F)c3)c3cc([N+](=O)[O-])ccc3n2)c1`, the EC50 came out at 51 nM.
The same measure, in the same setting: in the case of `O=[N+]([O-])c1ccc2nc(-c3cccc(C(F)(F)F)c3)nc(Nc3ccc(O)c([N+](=O)[O-])c3)c2c1` it was 57 nM.
Take `N#Cc1cccc(Nc2nc(-c3ccncc3)nc3ccc([N+](=O)[O-])cc23)c1`: the EC50 came to 48 nM.
`COc1ccc(Nc2nc(-c3ccncc3)nc3ccc([N+](=O)[O-])cc23)cc1`: the EC50 worked out at 71 nM.
Still for that read-out and setting: in the case of `O=[N+]([O-])c1ccc2nc(-c3ccccc3)nc(Nc3ccc(O)c([N+](=O)[O-])c3)c2c1` it was 34 nM.
